EP4800015A1, “AZABICYCLO DERIVATIVE AND PREPARATION METHOD THEREFOR, AND USE” (Zhejiang Hisun Pharmaceutical Co., Ltd., priority 2023, dated 2025)
Where two headings read alike, the source gives them in different places.

Biological target: T1, recombinant human WRN (Homo sapiens, UniProt Q14191)
T1 construct: purchased BPS 101264
Assay: Inhibition of WRN enzyme activity (ATPase), ADP-Glo Kinase Assay
Type: biochemical
Conditions: WRN protein 5 nM, Flap 0.1 nM, ATP 30 µM
Text: The following method was used to determine the degree of inhibition of recombinant human WRN ATPase activity by the compounds of the present disclosure in vitro. In this method, ADP-Glo™ Kinase Assay kit (catalog No. V9102) from Promega was used. Detailed experimental procedures can be found in the kit manual.
The experimental procedure was briefly described as follows: test compounds were first dissolved in DMSO to prepare stock solutions, followed by serial dilution using reaction buffer (30 mM Tris, pH 7.5, 2 mM MgCl2, 50 mM NaCl, 0.02% BSA, 0.1% Pluronic F127), with final concentrations of test compounds in the reaction system ranging from 1000 nM to 0.004 nM; WRN protein (purchased from BPS, catalog No. 101264), substrate 5-flap oligonucleotide (Flap26) (synthesized by Shanghai Generay Biotech Co., Ltd., sequence 5'-[…]-3'), and ATP working solution (from ADP-Glo™ Kinase Assay kit component V915A) were prepared using reaction buffer. Reactions were performed in 384-well microplates. At first the compounds and recombinant human WRN protein (final concentration 5 nM) were added to the wells and the plate was incubated at room temperature for 15 minutes, then Flap solution (final concentration 0.1 nM) and ATP solution (final concentration 30 µM) were added to the reaction solution and the plate was incubated at room temperature for 10 minutes. Subsequently, 5 µL of ADP-Glo Reagent was added to the reaction system and incubated at room temperature for 40 minutes. Then 10 µL of Kinase Detection Reagent was added to the reaction system and incubated at room temperature for 30 minutes. After the incubation was completed, chemiluminescence intensity values of each well were measured using a microplate reader in luminescence mode. The percentage inhibition of the compounds at each concentration was calculated by comparison with the luminescence intensity values of the control group (0.1% DMSO), and IC50 values of compounds were obtained by nonlinear regression analysis of compound concentration logarithm-inhibition rate using GraphPad Prism 9 software, as shown in Table 1.
The IC50 value results of the compounds of the present disclosure are expressed as AA and A, respectively as follows: "AA" indicates IC50 ≤ 1 nM; "A" indicates 1 nM < IC50 ≤ 100 nM. Table 1 IC50 of the compounds of the present disclosure for inhibiting WRN enzyme activity (ATPase)

T1 sequence (Q14191 whole entry): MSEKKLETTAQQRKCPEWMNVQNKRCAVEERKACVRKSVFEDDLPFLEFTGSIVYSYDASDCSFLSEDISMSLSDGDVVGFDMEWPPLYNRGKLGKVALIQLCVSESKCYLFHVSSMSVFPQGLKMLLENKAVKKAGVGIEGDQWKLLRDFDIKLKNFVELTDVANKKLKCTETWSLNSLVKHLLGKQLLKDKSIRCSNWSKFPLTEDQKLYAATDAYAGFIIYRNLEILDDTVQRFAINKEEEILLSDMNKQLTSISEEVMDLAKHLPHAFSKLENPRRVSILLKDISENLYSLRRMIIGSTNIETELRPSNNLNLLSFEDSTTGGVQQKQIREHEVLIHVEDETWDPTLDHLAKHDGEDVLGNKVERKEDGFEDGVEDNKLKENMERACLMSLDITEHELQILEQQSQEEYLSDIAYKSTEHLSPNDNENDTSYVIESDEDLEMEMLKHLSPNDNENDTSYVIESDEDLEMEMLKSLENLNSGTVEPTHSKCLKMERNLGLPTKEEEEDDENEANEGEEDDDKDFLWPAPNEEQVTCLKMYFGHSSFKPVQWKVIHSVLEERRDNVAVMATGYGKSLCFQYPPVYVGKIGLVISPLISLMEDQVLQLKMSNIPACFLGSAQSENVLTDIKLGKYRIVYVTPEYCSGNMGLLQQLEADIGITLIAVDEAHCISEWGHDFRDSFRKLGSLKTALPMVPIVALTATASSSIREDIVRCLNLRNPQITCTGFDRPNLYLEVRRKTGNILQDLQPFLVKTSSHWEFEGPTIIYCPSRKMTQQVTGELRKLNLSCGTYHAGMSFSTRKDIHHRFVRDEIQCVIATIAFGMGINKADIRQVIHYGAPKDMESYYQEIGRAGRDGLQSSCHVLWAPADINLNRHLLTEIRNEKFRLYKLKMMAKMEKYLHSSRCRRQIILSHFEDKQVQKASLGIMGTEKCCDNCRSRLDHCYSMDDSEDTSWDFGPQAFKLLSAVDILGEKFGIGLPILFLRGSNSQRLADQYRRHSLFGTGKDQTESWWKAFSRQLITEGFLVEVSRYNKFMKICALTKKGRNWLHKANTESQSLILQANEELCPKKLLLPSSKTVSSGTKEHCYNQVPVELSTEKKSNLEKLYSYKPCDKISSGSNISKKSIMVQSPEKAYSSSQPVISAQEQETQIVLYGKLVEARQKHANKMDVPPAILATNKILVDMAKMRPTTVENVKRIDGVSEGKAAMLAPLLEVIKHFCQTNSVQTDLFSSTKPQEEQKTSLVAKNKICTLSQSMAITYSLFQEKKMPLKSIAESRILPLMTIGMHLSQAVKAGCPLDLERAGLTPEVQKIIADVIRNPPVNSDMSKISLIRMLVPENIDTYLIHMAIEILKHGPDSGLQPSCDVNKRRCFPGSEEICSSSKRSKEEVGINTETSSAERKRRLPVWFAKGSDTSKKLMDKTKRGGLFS

Row | SMILES | IC50 (read-out: IC50) [nM] | IC50 [nM]
1 | CCc1c(N2CCN(C(=O)c3ccncc3O)CC2)c(=O)n2nc(C3=CCCCCC3)nc2n1CC(=O)Nc1ccc(S(F)(F)(F)(F)F)cc1 [Example 25, 2-(2-(cyclohept-1-en-1-yl)-5-ethyl-6-(4-(3-hydroxyisonicotinoyl)piperazin-1-yl)-7-oxo-[1,2,4]triazolo[1,5-a]pyrimidin-4(7H)-yl)-N-(4-(pentafluoro-λ^6-sulfaneyl)phenyl)acetamide] | 1 to 100 | –
2 | Cc1ncnc(C(=O)N2CCN(c3c(C)n(CC(=O)Nc4ccc(C(F)(F)F)cc4Cl)c4nc(C5=CC6CC(=O)CC6C5)nn4c3=O)CC2)c1O (stereo not shown) [Example 32, N-(2-chloro-4-(trifluoromethyl)phenyl)-2-(6-(4-(5-hydroxy-6-methylpyrimidine-4-carbonyl)piperazin-1-yl)-5-methyl-7-oxo-2-(5-oxo-1,3a,4,5,6,6a-hexahydropentalen-2-yl)-[1,2,4]triazolo[1,5-a]pyrimidin-4(7H)-yl)acetamide] | 1 to 100 | –
3 | CCc1c(N2CCN(C(=O)c3ncnc(C)c3O)CC2)c(=O)n2nc(-c3coc4ccccc34)nc2n1CC(=O)Nc1ccc(C(F)(F)F)cc1Cl [Example 35, 2-(2-(benzofuran-3-yl)-5-ethyl-6-(4-(5-hydroxy-6-methylpyrimidine-4-carbonyl)piperazin-1-yl)-7-oxo-[1,2,4]triazolo[1,5-a]pyrimidin-4(7H)-yl)-N-(2-chloro-4-(trifluoromethyl)phenyl) acetamide] | – | 1 to 100
4 | CCc1c(N2CCN(C(=O)c3ncnc(C)c3O)CC2)c(=O)n2nc(/C=C(\C)C3CC3)nc2n1CC(=O)Nc1ccc(C(F)(F)F)cc1Cl [Example 36, (E)-N-(2-chloro-4-(trifluoromethyl)phenyl)-2-(2-(2-cyclopropylprop-1-en-1-yl)-5-ethyl-6-(4-(5-hydroxy-6-methylpyrimidine-4-carbonyl)piperazin-1-yl)-7-oxo-[1,2,4]triazolo[1,5-a]pyrimidin-4(7H)-yl)acetamide] | 1 to 100 | –
5 | CCc1c(N2CCN(C(=O)c3ncnc(C)c3O)CC2)c(=O)n2nc(/C=C/c3ccccn3)nc2n1CC(=O)Nc1ccc(C(F)(F)F)cc1Cl [Example 37, (E)-N-(2-chloro-4-(trifluoromethyl)phenyl)-2-(5-ethyl-6-(4-(5-hydroxy-6-methylpyrimidine-4-carbonyl)piperazin-1-yl)-7-oxo-2-(2-(pyridin-2-yl)vinyl)-[1,2,4]triazolo[1,5-a]pyrimidin-4(7H)-yl)a cetamide] | 1 to 100 | –
6 | CCc1c(N2CCN(C(=O)c3ncccc3O)CC2)c(=O)n2nc(C3=CC4CC4C3)nc2n1CC(=O)Nc1ccc(C(F)(F)F)cc1Cl (stereo not shown) [Example 38, 2-(2-(bicyclo[3.1.0]hex-2-en-3-yl)-5-ethyl-6-(4-(3-hydroxypicolinoyl)piperazin-1-yl)-7-oxo-[1,2, 4]triazolo[1,5-a]pyrimidin-4(7H)-yl)-N-(2-chloro-4-(trifluoromethyl)phenyl)acetamide] | < 1 | –
7 | CCc1c(N2CCN(C(=O)c3ncccc3O)CC2)c(=O)n2nc(C3=CC4CCC3C4)nc2n1CC(=O)Nc1ccc(C(F)(F)F)cc1Cl (stereo not shown) [Example 41, 2-(2-(bicyclo[2.2.1]hept-2-en-2-yl)-5-ethyl-6-(4-(3-hydroxypicolinoyl)piperazin-1-yl)-7-oxo-[1,2,4]triazolo[1,5-a]pyrimidin-4(7H)-yl)-N-(2-chloro-4-(trifluoromethyl)phenyl)acetamide] | 1 to 100 | –
8 | CCc1c(N2CCN(C(=O)c3ncccc3O)CC2)c(=O)n2nc(C3=CC4CC(=O)CC4C3)cc2n1CC(=O)Nc1ccc(C(F)(F)F)cc1Cl (stereo not shown) [Example 56, N-(2-chloro-4-(trifluoromethyl)phenyl)-2-(5-ethyl-6-(4-(3-hydroxypicolinoyl)piperazin-1-yl)-7-oxo-2-(5-oxo-1,3a,4,5,6,6a-hexahydropentalen-2-yl)pyrazolo[1,5-a]pyrimidin-4(7H)-yl)acetamide] | 1 to 100 | –

Now from value to molecule, other results behind:

Row | IC50 (read-out: IC50) [nM] | SMILES | IC50 [nM]
9 | 1 to 100 | CCc1c(N2CCN(C(=O)c3ccncc3O)CC2)c(=O)n2nc(C3=CCCCCC3)nc2n1CC(=O)Nc1ccc(C(C)(C)C)cc1 [Example 24, N-(4-(tert-butyl)phenyl)-2-(2-(cyclohept-1-en-1-yl)-5-ethyl-6-(4-(3-hydroxyisonicotinoyl)piperazin-1-yl)-7-oxo-[1,2,4]triazolo[1,5-a]pyrimidin-4(7H)-yl)acetamide] | –
10 | 1 to 100 | CCc1c(N2CCN(C(=O)c3ncnc(C)c3O)CC2)c(=O)n2nc(C3=CCCCCC3)nc2n1CC(=O)Nc1ccc(C(C)(C)C)cc1 [Example 26, N-(4-(tert-Butyl)phenyl)-2-(2-(cyclohept-1-en-1-yl)-5-ethyl-6-(4-(5-hydroxy-6-methylpyrimidine-4-carbonyl)piperazin-1-yl)-7-oxo-[1,2,4]triazolo[1,5-a]pyrimidin-4(7H)-yl)acetamide] | –
11 | 1 to 100 | CCc1nc2n(CC(=O)Nc3ccc(C(F)(F)F)cc3Cl)c(CC)c(N3CCN(C(=O)c4ncnc(C)c4O)CC3)c(=O)n2n1 [Example 28, N-(2-chloro-4-(trifluoromethyl)phenyl)-2-(2,5-diethyl-6-(4-(5-hydroxy-6-methylpyrimidine-4-carbonyl)piperazin-1-yl)-7-oxo-[1,2,4]triazolo[1,5-a]pyrimidin-4(7H)-yl)acetamide] | –
12 | 1 to 100 | CCc1c(N2CCN(C(=O)c3ccncc3O)CC2)c(=O)n2nc(C3=CCCCCC3)nc2n1CC(=O)Nc1ccc(C(F)(F)F)cc1C [Example 42, 2-(2-(cyclohept-1-en-1-yl)-5-ethyl-6-(4-(3-hydroxyisonicotinoyl)piperazin-1-yl)-7-oxo-[1,2,4]triazolo[1,5-a]pyrimidin-4(7H)-yl)-N-(2-methyl-4-(trifluoromethyl)phenyl)acetamide] | –
13 | 1 to 100 | CCc1c(N2CCN(C(=O)c3ccncc3O)CC2)c(=O)n2nc(C3=CCCCCC3)nc2n1CC(=O)Nc1ccc(C(F)(F)F)cc1OC [Example 43, 2-(2-(cyclohept-1-en-1-yl)-5-ethyl-6-(4-(3-hydroxyisonicotinoyl)piperazin-1-yl)-7-oxo-[1,2,4]triazolo[1,5-a]pyrimidin-4(7H)-yl)-N-(2-methoxy-4-(trifluoromethyl)phenyl)acetamide] | –
14 | 1 to 100 | CCc1c(N2CCN(C(=O)c3ccncc3O)CC2)c(=O)n2nc(C3=CCCCCC3)nc2n1CC(=O)Nc1ccc(C(F)(F)F)cc1F [Example 44, 2-(2-(cyclohept-1-en-1-yl)-5-ethyl-6-(4-(3-hydroxyisonicotinoyl)piperazin-1-yl)-7-oxo-[1,2,4]triazolo[1,5-a]pyrimidin-4(7H)-yl)-N-(2-fluoro-4-(trifluoromethyl)phenyl)acetamide] | –
15 | 1 to 100 | CCc1c(N2CCN(C(=O)c3ncccc3O)CC2)c(=O)n2nc(C3=CCCCCC3)nc2n1CC(=O)Nc1ccc(C(F)(F)F)cc1Cl [Example 45, N-(2-chloro-4-(trifluoromethyl)phenyl)-2-(2-(cyclohept-1-en-1-yl)-5-ethyl-6-(4-(3-hydroxypicolinoyl)piperazin-1-yl)-7-oxo-[1,2,4]triazolo[1,5-a]pyrimidin-4(7H)-yl)acetamide] | –
16 | 1 to 100 | CCc1c(N2CCN(C(=O)c3ncccc3O)CC2)c(=O)n2nc(C3=CCCCCC3)nc2n1CC(=O)Nc1ccc(S(F)(F)(F)(F)F)cc1 [Example 46, 2-(2-(cyclohept-1-en-1-yl)-5-ethyl-6-(4-(3-hydroxypicolinoyl)piperazin-1-yl)-7-oxo-[1,2,4]triazolo[1,5-a]pyrimidin-4(7H)-yl)-N-(4-(pentafluoro-λ^6-sulfaneyl)phenyl)acetamide] | –
17 | 1 to 100 | CCc1c(N2CCN(C(=O)c3ncnc(C)c3O)CC2)c(=O)n2nc(C3=CCCCCC3)nc2n1CC(=O)Nc1ccc(C(F)(F)F)cc1OC [Example 48, 2-(2-(cyclohept-1-en-1-yl)-5-ethyl-6-(4-(5-hydroxy-6-methylpyrimidine-4-carbonyl)piperazin-1-yl)-7-oxo-[1,2,4]triazolo[1,5-a]pyrimidin-4(7H)-yl)-N-(2-methoxy-4-(trifluoromethyl)phenyl)ace tamide] | –
18 | 1 to 100 | CCc1c(N2CCN(C(=O)c3ncnc(C)c3O)CC2)c(=O)n2nc(C3=CC4(CCC4)C3)nc2n1CC(=O)Nc1ccc(C(F)(F)F)cc1Cl [Example 50, N-(2-chloro-4-(trifluoromethyl)phenyl)-2-(5-ethyl-6-(4-(5-hydroxy-6-methylpyrimidine-4-carbonyl)piperazin-1-yl)-7-oxo-2-(spiro[3.3]hept-1-en-2-yl)-[1,2,4]triazolo[1,5-a]pyrimidin-4(7H)-yl)ac etamide] | –
19 | 1 to 100 | CCc1c(N2CCN(C(=O)c3ncccc3O)CC2)c(=O)n2nc(C3=CC4(CCC4)C3)nc2n1CC(=O)Nc1ccc(C(F)(F)F)cc1Cl [Example 51, N-(2-chloro-4-(trifluoromethyl)phenyl)-2-(5-ethyl-6-(4-(3-hydroxypicolinoyl)piperazin-1-yl)-7-oxo-2-(spiro[3.3]hept-1-en-2-yl)-[1,2,4]triazolo[1,5-a]pyrimidin-4(7H)-yl)acetamide] | –
